{"source": "patent US20230069886A1", "about": "“AROMATIC SULPHONAMIDES DERIVATIVES THAT INHIBITS PDI A3, THEIR SYNTHESIS AND USE” (Uniwersytet Jagiellonski, priority 2020, published 2023)", "key": {"HT-29": {"test_system": "HT-29", "experiment": "MTT antiproliferative assay, 72 h, HT-29", "format": "cell-based, human", "settings": "72 hours exposition", "procedure": "Anticancer activity of selected compounds of invention, PDI A3-inhibitors has been also tested in vitro in antiproliferative assay in normoxic and hypoxic conditions as well in estrogen-stimulated cancer cells. In the experiment, cells were seeded on 96-well plates (Sarstedt, Germany) in appropriate culture medium at a density of 10^5 cells/mL 24 h before adding the tested compounds. Cells were treated with each compound in four concentrations in the range 0.1-100 μg/mL. […] After 72 h of compound treatment at 37° C., 5% CO2 humid atmosphere and in wo different oxygen level conditions: 21%—normal and <1%—hypoxia. In some experiments the MDA-MB-231 and MCF-7 cells were seeded with or without 200 nM estradiol and after 24 h the tested compounds were added. […] Briefly, cells were fixed with 50 μL/well of 50% (w/v) trichloroacetic acid (Avantor Performance Materials, Gliwice, Poland). After 1 h incubation, plates were washed several times with tap water and 50 μL of 0.4% (w/v) solution of sulforhodamine B (Sigma-Aldrich, Germany) in 1% (v/v) acetic acid (Avantor Performance Materials, Gliwice, Poland) was added to each well. After 30 min incubation at room temperature, unbound dye was washed out with 1% (v/v) acetic acid, whereas bound dye was solubilized with 10 mM unbuffered TRIS (Avantor Performance Materials, Gliwice, Poland) solution. The entire procedure was performed using a BioTek EL-406 washing station (BioTek Instruments, USA). After additional 30 min, absorbance was read using a Biotek Hybrid H4 reader (BioTek Instruments, USA) at 540 nm wavelength. […] Absorbance was measured using a Biotek Hybrid H4 reader at 570 nm wavelength for MTT assay.\n(§1) Compounds at each concentration were tested in triplicate in a single experiment and each experiment was repeated at least three times independently. Results are presented as mean IC50±SD."}, "human platelets": {"test_system": "human platelets", "experiment": "Light transmission aggregometry of collagen-stimulated human platelet-rich plasma", "format": "cell-based", "settings": "human PRP, FIG. 2, 3", "procedure": "Anti-platelet activity of compounds of invention was assessed using light transmission aggregometry assay of human platelet-rich plasma (PRP). Venous blood was obtained from male volunteers at the University Hospital Blood Bank Centre. Volunteer donors had not taken any medicines for the preceding two weeks. Blood was collected into vials containing sodium citrate (3.2%, 9:1 v/v) as an anti-coagulant agent. To obtain platelet rich plasma (PRP), blood was centrifuged at 260×g for 15 min. The platelet […] plasma fraction (used as a blank sample) was obtained by centrifugation of the remaining blood for 10 min at 2600×g. Aggregation of blood platelets was assessed in PRP with a dual channel Chronolog aggregometer (CHRONO-LOG) using a method previously described by Born^35. PRP (500 μl) was equilibrated for 2 min at 37° C. with a continuous stirring at 800 rpm and then stimulated with collagen to cause aggregation. At the beginning of each experiment, concentrations of collagen that induced sub-maximum aggregation response were determined. These concentrations were in the range of […], respectively. All the tested compounds were added 2 min prior to stimulation of platelets with collagen. Transmittance was read 6 min after stimulation of platelets with an agonist. […]"}, "HL-60": {"test_system": "HL-60", "experiment": "MTT antiproliferative assay, 72 h, HL-60", "format": "cell-based, human", "settings": "72 hours exposition", "procedure": "Anticancer activity of selected compounds of invention, PDI A3-inhibitors has been also tested in vitro in antiproliferative assay in normoxic and hypoxic conditions as well in estrogen-stimulated cancer cells. In the experiment, cells were seeded on 96-well plates (Sarstedt, Germany) in appropriate culture medium at a density of 10^5 cells/mL 24 h before adding the tested compounds. Cells were treated with each compound in four concentrations in the range 0.1-100 μg/mL. […] After 72 h of compound treatment at 37° C., 5% CO2 humid atmosphere and in wo different oxygen level conditions: 21%—normal and <1%—hypoxia. In some experiments the MDA-MB-231 and MCF-7 cells were seeded with or without 200 nM estradiol and after 24 h the tested compounds were added. A previously described sulforhodamine B antiproliferative assay was used with minor modifications (Skehan P et al., 1990). Briefly, cells were fixed with 50 μL/well of 50% (w/v) trichloroacetic acid (Avantor Performance Materials, Gliwice, Poland). After 1 h incubation, plates were washed several times with tap water and 50 μL of 0.4% (w/v) solution of sulforhodamine B (Sigma-Aldrich, Germany) in 1% (v/v) acetic acid (Avantor Performance Materials, Gliwice, Poland) was added to each well. After 30 min incubation at room temperature, unbound dye was washed out with 1% (v/v) acetic acid, whereas bound dye was solubilized with 10 mM unbuffered TRIS (Avantor Performance Materials, Gliwice, Poland) solution. The entire procedure was performed using a BioTek EL-406 washing station (BioTek Instruments, USA). After additional 30 min, absorbance was read using a Biotek Hybrid H4 reader (BioTek Instruments, USA) at 540 nm wavelength. MTT assay was used alternatively for HL-60 cell line and in the experiment in which estrogens are added (specified in the table legend). Absorbance was measured using a Biotek Hybrid H4 reader at 570 nm wavelength for MTT assay.\nas §1"}}}
{"smiles": "COC(=O)C1CN1S(=O)(=O)c1ccc2c(C=O)c(N(C)C)ccc2c1", "note": "(stereo not drawn) [Compound C-3390, Methyl 1-[[6-(dimethylamino)-5-formyl-2-naphthyl]sulfonyl]aziridine-2-calboxylate]", "values": [{"measurement": "IC50 [μg/ml] HT-29 normal", "setting": "HT-29", "result": "33.6 ± 2.9", "unit": "µg/mL"}, {"measurement": "Inhibition of platelet aggregation", "setting": "human platelets", "result": "lowest EC50"}, {"measurement": "IC50 [μg/ml] HL-60 normal", "setting": "HL-60", "result": "14.4 ± 0.7", "unit": "µg/mL"}]}
